Data from patent US7732444B2, “2-(amino-substituted)-4-aryl pyrimidines and related compounds useful for treating inflammatory diseases” (Millennium Pharmaceuticals, Inc., priority 2004, dated 2010).

biological target: T1, full length PKC θ (Homo sapiens, UniProt Q04759); assay: PKC-theta isoform inhibition assay (HTRF, 384 well plate); format: biochemical; details: full length PKC θ at 27 pM, peptide substrate 300 nM + 3 μM ATP, HTRF readout
T1 construct: 15 μL of full length PKC θ (Panvera Corporation); purchased Panvera Corporation
T1 sequence (Q04759 whole entry, canonical isoform): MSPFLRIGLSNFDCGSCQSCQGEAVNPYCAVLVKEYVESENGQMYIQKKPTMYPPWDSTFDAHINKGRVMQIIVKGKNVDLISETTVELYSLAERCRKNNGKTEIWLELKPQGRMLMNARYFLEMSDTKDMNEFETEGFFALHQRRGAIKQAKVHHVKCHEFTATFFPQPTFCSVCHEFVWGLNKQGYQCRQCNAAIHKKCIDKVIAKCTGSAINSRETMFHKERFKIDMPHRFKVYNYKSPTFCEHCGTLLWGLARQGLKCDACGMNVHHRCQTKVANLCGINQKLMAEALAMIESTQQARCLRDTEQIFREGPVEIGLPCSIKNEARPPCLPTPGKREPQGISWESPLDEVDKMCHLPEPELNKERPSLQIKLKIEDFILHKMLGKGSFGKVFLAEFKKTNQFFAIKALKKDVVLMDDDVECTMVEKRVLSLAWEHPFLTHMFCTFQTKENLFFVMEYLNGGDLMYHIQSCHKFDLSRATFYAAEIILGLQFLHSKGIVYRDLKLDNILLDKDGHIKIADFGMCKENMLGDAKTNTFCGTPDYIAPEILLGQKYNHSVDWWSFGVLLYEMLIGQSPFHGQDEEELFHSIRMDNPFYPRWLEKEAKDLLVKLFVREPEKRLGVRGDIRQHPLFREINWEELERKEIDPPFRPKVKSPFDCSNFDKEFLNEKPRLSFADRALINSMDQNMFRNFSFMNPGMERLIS
Procedure: An in vitro assay for detecting and measuring inhibition activity against PKC-theta isoform by candidate pharmacological agents is useful for evaluating and selecting a compound that modulates PKC-theta isoform. An IC50 value can be calculated after running the assay. Following is an assay protocol for measuring PKC-theta isoform.
Per well of a 384 well plate, compounds at various concentrations in 5 μL of 20% DMSO were pre-incubated for about 30 minutes at about 25° C. with 15 μL of full length PKC θ (Panvera Corporation) at 27 pM in an assay buffer (25 mM Hepes, pH 7.5, 5 mM DTT, 10 mM MgCl2, 10 mM 2-glycerophosphate, 12.5 μg/mL 1,2-dioleoyl-rac-glycerol, 10 μg/mL L-α-phosphatidyl-L-serine, 0.1% Bovine Serum Albumin). 10 μL of peptide substrate (biotin-(CH2)6— RFARKGSLRQKNV —CONH2) at 300 nM+3 μM ATP were added to each well and incubated for about 1 hour before quenching with 10 μL of 250 mM EDTA. 40 μL of detection buffer (25 mM Hepes, pH 7.5, 100 mM KF, 0.1% Bovine Serum Albumin, 0.01% Tween20) containing 2 nM anti-phospho antibody 2B9 (MBL International) labeled with europium cryptate (Cis-Bio International) and 0.0064 μg/mL streptavidin-allophycocyanin (Prozyme) was added to each well and incubated for two hours. Signal was then read on a Discovery HTRF (Packard).

IC50, < 100 nM:
COc1cc(CCNc2nccc(-c3cccc(OC(C)C)c3)n2)ccc1O [Compound 107, 4-{2-[4-(3-Isopropoxy-phenyl)-pyrimidin-2-ylamino]-ethyl}-2-methoxy-phenol]
CC(=O)N(Cc1cccc(-c2ccnc(NCCc3ccc(O)cc3)n2)c1)CC1CCNC1 (stereo not shown) [Compound 120, N-(3-{2-[2-(4-Hydroxy-phenyl)-ethylamino]-pyrimidin-4-yl}-benzyl)-N-pyrrolidin-3-ylmethyl-acetamide]
CC(O)c1cccc(-c2ccnc(NCCc3ccc(O)cc3)n2)c1 (stereo not shown) [Compound 121, 4-(2-{4-[3-(1-Hydroxy-ethyl)-phenyl]-pyrimidin-2-ylamino}-ethyl)-phenol]
CCN(CC)CCCNCc1cccc(-c2ccnc(NCCc3ccc(O)cc3)n2)c1 [Compound 125, 4-[2-(4-{3-[(3-Diethylamino-propylamino)-methyl]-phenyl}-pyrimidin-2-ylamino)-ethyl]-phenol]
CCN(CC)CCCN(CC)Cc1cccc(-c2ccnc(NCCc3ccc(O)cc3)n2)c1 [Compound 126]
C[C@H]1CNCCN1Cc1cccc(-c2ccnc(NCCc3cccc(F)c3)n2)c1 [Compound 130, [2-(3-Fluoro-phenyl)-ethyl]-{4-[3-(2-(S)-methyl-piperazin-1-ylmethyl)-phenyl]-pyrimidin-2-yl}-amine]
CCNCc1cccc(-c2ccnc(NCCc3ccc(O)cc3)n2)c1 [Compound 131, 4-{2-[4-(3-Ethylaminomethyl-phenyl)-pyrimidin-2-ylamino]-ethyl}-phenol]
CC(C)NCc1cccc(-c2ccnc(NCCc3ccc(O)c(Cl)c3)n2)c1 [Compound 132, 2-Chloro-4-(2-{4-[3-(isopropylamino-methyl)-phenyl]-pyrimidin-2-ylamino}-ethyl)-phenol]
CS(=O)(=O)N(Cc1cccc(-c2nc(NCCc3ccc(O)cc3)ncc2F)c1)C1CCNCC1 [Compound 134, N-(3-{5-Fluoro-2-[2-(4-hydroxy-phenyl)-ethylamino]-pyrimidin-4-yl}-benzyl)-N-piperidin-4-yl-methanesulfonamide]
CS(=O)(=O)N(Cc1cccc(-c2nc(NCCc3ccc(O)c(Cl)c3)ncc2F)c1)C1CCNCC1 [Compound 142, N-(3-{2-[2-(3-Chloro-4-hydroxy-phenyl)-ethylamino]-5-fluoro-pyrimidin-4-yl}-benzyl)-N-piperidin-4-yl-methanesulfonamide]
CCN(CCCN)Cc1cccc(-c2nc(NCCc3ccc(O)c(F)c3)ncc2F)c1 [Compound 143, 4-{2-[4-(3-{[(3-Amino-propyl)-ethyl-amino]-methyl}-phenyl)-5-fluoro-pyrimidin-2-ylamino]-ethyl}-2-fluoro-phenol]
[2H]C([2H])(CNc1nccc(-c2cccc(CN3CCNC[C@@H]3C)c2)n1)c1cc(F)cc(F)c1 [Compound 200, [2-(3,5-Difluoro-phenyl)-2,2 dideuteroethyl]-{4-[3-(2(S)-methyl-piperazin-1-ylmethyl)-phenyl]-pyrimidin-2-yl}-amine]
CC(C)(C)NCc1cccc(-c2ccnc(NCCc3ccc(O)c(Cl)c3)n2)c1 [Compound 218, 4-(2-{4-[3-(tert-Butylamino-methyl)-phenyl]-pyrimidin-2ylamino}-ethyl)-2-chloro-phenol]
C[C@H]1CNCC[C@H]1NCc1cccc(-c2ccnc(NCCc3ccc(O)cc3)n2)c1 [Compound 249, 4-[2-(4-{3-[(3(S)-Methyl-piperidin-4(R)-ylamino)-methyl]-phenyl}-pyrimidin-2-ylamino)-ethyl]-phenol]
NC(=O)C1CNCCN1Cc1cccc(-c2ccnc(NCCc3ccc(O)cc3)n2)c1 (stereo not shown) [Compound 254, 1-(3-{2-[2-(4-Hydroxy-phenyl)-ethylamino]-pyrimidin-4-yl}-benzyl)-piperazine-2-carboxylic acid amide]
Oc1ccc(CCNc2nccc(-c3cccc(CN4CC5CC4CN5)c3)n2)cc1Cl (stereo not shown) [Compound 265, 2-Chloro-4-(2-{4-[3-(2,5-diaza-bicyclo[2.2.1]hept-2-ylmethyl)-phenyl]-pyrimidin-2-ylamino}-ethyl)-phenol]
Oc1ccc(CCNc2nccc(-c3cccc(CN4CC5CC4CN5)c3)n2)cc1 (stereo not shown) [Compound 266, 4-(2-{4-[3-(2,5-Diaza-bicyclo[2.2.1]hept-2-ylmethyl)-phenyl]-pyrimidin-2-ylamino}-ethyl)-phenol]
C[C@H]1CNCCN1S(=O)(=O)c1cccc(-c2ccnc(NCCc3ccc(O)c(Cl)c3)n2)c1 [Compound 278]
Cc1c(CN2CCNC[C@@H]2C)cccc1-c1ccnc(NCCc2ccc(O)cc2)n1 [Compound 284, 4-(2-(4-(2-methyl-3-(((S)-2-methylpiperazin-1-yl)methyl)phenyl)pyrimidin-2-ylamino)ethyl)phenol]
C[C@H]1CNCCN1Cc1cc(-c2ccnc(NCCc3ccc(O)cc3)n2)ccc1F [Compound 286, 4-(2-(4-(4-fluoro-3-(((S)-2-methylpiperazin-1-yl)methyl)phenyl)pyrimidin-2-ylamino)ethyl)phenol]
CCN(CCC1CCCCN1)Cc1cccc(-c2ccnc(NCCc3ccc(O)c(Cl)c3)n2)c1 (stereo not shown) [Compound 289, 2-chloro-4-(2-(4-(3-((ethyl(2-(piperidin-2-yl)ethyl)amino)methyl)phenyl)pyrimidin-2-ylamino)ethyl)phenol]
Oc1ccc(CCNc2nccc(-c3cccc(CNCCc4ccccn4)c3)n2)cc1Cl [Compound 292, 2-chloro-4-(2-(4-(3-((2-(pyridinyl-2-yl)ethylamino)methyl)phenyl)pyrimidin-2-ylamino)ethyl)phenol]
